Results: patent US9695155B2, “Herbicidal substituted pyrimidinyloxy benzene compounds” (E. I. DU PONT DE NEMOURS AND COMPANY, priority 2013, dated 2017)

Assays:
blackgrass = assay: Test A postemergence; assay type: in vivo, Alopecurus myosuroides
Procedure, shortened: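 Visual injury scored 0–100 (100 = complete control) against untreated controls about 10 days after treatment in a greenhouse. Test chemicals, formulated with surfactant in non-phytotoxic solvent, were sprayed on soil preemergence or on 2-10 cm, one- to two-leaf plants postemergence.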

rice = assay: Test C flooded paddy test; assay type: in vivo, Oryza sativa; details: Flood, scale 0 to 100 (0 no effect, 100 complete control), 13 to 15 days
Procedure, shortened: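 Test compounds are applied straight into paddy water held 3 cm above the soil surface, with that flood maintained for the whole test. After 13 to 15 days in the greenhouse, each species is scored visually relative to controls.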

[1] = 125 g ai/ha, 0 to 100 scale where 0 is no effect and 100 is complete control
[2] = 500 g ai/ha, 0 to 100 scale where 0 is no effect and 100 is complete control
[3] = 1000 g ai/ha, 0 to 100 scale, 0 no effect, 100 complete control
[4] = 31 g ai/ha, 0 to 100 scale, 0 no effect, 100 complete control
[5] = 125 g ai/ha, 0 to 100 scale, 0 no effect, 100 complete control

| SMILES | Blackgrass plant response rating (blackgrass; [1]) | Plant response rating, Blackgrass (blackgrass; [2]) | Plant response rating, Rice (rice; 31 g ai/ha) | Plant response rating, Rice (rice; 62 g ai/ha) | Plant response rating, Rice (rice; 125 g ai/ha) | Plant response rating, Rice (rice; 250 g ai/ha) | Plant response rating, Blackgrass (blackgrass; [5]) | other results |
| --- | --- | --- | --- | --- | --- | --- | --- | --- |
| FC(F)(F)Sc1cnn(-c2ccccc2Oc2ncc(Cl)cn2)c1 [Compound 132, 5-chloro-2-[2-[4-(trifluoromethylthio)-1H-pyrazol-1-yl]phenoxy]pyrimidine] | 60 | 90 |  |  |  |  |  |  |
| Cc1cnc(Oc2cccc(C#N)c2-n2cc(I)cn2)nc1 [Compound 136] | 20 | 100 |  |  |  |  |  |  |
| COc1cnn(-c2c(C#N)cccc2Oc2ncc(Cl)cn2)c1 [Compound 137] | 20 | 90 |  |  |  |  |  |  |
| CCCOc1cnn(-c2c(C#N)cccc2Oc2ncc(Cl)cn2)c1 [Compound 150] | 100 | 100 | 0 | 0 | 0 | 0 |  |  |
| FCc1cn(-c2c(F)cccc2Oc2ncc(Cl)cn2)nn1 [Compound 154] |  |  |  |  |  |  |  | Plant response rating, Blackgrass (blackgrass; [3]): 90 |
| Fc1cccc(Oc2ncc(Cl)cn2)c1-n1cc(C2CC2)nn1 [Compound 155] |  |  |  |  |  |  |  | Plant response rating, Blackgrass (blackgrass; [3]): 100 |
| N#Cc1cnn(-c2c(Oc3ncc(Cl)cn3)cccc2C(F)F)c1 [Compound 236] |  |  | 0 | 0 | 10 | 20 |  |  |
| N#Cc1cccc(Oc2ncc(Cl)cn2)c1-n1cnc(C(F)(F)F)c1 [Compound 252, 3-[(5-chloro-2-pyrimidinyl)oxy]-2-[4-(trifluoromethyl)-1H-imidazol-1-yl]benzonitrile] |  | 100 |  |  |  |  | 60 | Plant response rating, Blackgrass (blackgrass; [4]): 10 |
| Fc1cccc(Oc2ncc(Cl)cn2)c1-n1cc(OCC(F)(F)F)cn1 [Compound 270] |  |  | 0 | 0 | 0 | 30 | 40 | Plant response rating, Blackgrass (blackgrass; [4]): 10 |
| N#Cc1cccc(Oc2ncc(Cl)cn2)c1-n1cc(-n2ccc(C(F)(F)F)n2)cn1 [Compound 284] |  | 70 |  |  |  |  | 30 |  |
